Values belong to the compound of their own block, whether it stands above or below them. Activity calls are given as the source filed them. No cut-off for these calls is given here.
Experiments:
[1] = target: Mitogen-activated protein kinase kinase kinase 8 (Homo sapiens, UniProt P41279); assay: Inhibition of human Tpl2 by ELISA
[2] = (§1) Inhibition of LPS-induced MEK phosphorylation in primary human monocytes by immunoblot analysis; format: cell-based
[3] = (§2) Inhibition of LPS-induced ERK phosphorylation in primary human monocytes by immunoblot analysis; format: cell-based
Homo sapiens [4] = species on record: Homo sapiens; assay: Inhibition of PMA-induced MEK phosphorylation in primary human monocytes by immunoblot analysis; format: cell-based
RA-FLS [5] = assay: Inhibition of IL-1-beta-stimulated PGE2 production in human RA-FLS cells after 4 hrs by ELISA; format: functional, cell-based
[6] = Inhibition of IL-1-beta-stimulated ERK phosphorylation in shuman RA-FLS cells by immunoblot analysis; format: cell-based; details: Homo sapiens
[7] = Inhibition of IL-1-beta-induced MEK phosphorylation in primary human monocytes by immunoblot analysis; format: cell-based
[8] = target: Proto-oncogene tyrosine-protein kinase Src (Homo sapiens, UniProt P12931); assay: Inhibition of human Src by ELISA
[9] = target: Mitogen-activated protein kinase 14 (Homo sapiens, UniProt Q16539); assay: Inhibition of human p38alpha by ELISA
HeLa [10] = assay: Cytotoxicity against human HeLa cells; format: functional, cell-based
HeLa [11] = assay: Inhibition of IL8 production in human Tpl2 expressing HeLa cells after 17 hrs by ELISA; format: functional, cell-based
Monocyte [12] = assay: (§3) Inhibition of IL-1-beta-induced IL12p40 production in primary human monocytes at 5 uM; format: functional, cell-based
[13] = target: T1, MAP kinase-activated protein kinase 2 (Homo sapiens, UniProt P49137); assay: Inhibition of human MK2 by scintiplate assay
Target sequence in this assay (P49137 whole entry): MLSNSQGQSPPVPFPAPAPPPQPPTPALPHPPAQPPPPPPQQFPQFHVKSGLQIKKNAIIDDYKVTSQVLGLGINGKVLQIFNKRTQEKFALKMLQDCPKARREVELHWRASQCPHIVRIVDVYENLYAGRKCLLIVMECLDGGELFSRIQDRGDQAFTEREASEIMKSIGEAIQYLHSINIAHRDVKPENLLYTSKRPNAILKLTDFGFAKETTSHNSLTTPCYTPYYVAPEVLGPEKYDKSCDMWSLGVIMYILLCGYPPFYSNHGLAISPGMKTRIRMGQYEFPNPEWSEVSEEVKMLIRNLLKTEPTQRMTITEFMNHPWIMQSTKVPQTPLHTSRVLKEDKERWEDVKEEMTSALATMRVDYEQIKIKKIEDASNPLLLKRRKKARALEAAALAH

[14] = target: RAF proto-oncogene serine/threonine-protein kinase (Homo sapiens, UniProt P04049); assay: Inhibition of human Raf1
[15] = Cytotoxicity against human RA-FLS cells at =< 10 uM; format: cell-based
[16] = Inhibition of IL-1-beta-stimulated MMP1 in human RA-FLS cells by immunoblot analysis; format: functional, cell-based
[17] = target: Dual specificity mitogen-activated protein kinase kinase 1 (Oryctolagus cuniculus, UniProt P29678); assay: Inhibition of rabbit MEK1 by ELISA
HEK293 [18] = assay: Inhibition of TNF-induced NF-kappaB activation in HEK293 cells upto 10 uM by luciferase assay; format: cell-based; details: Homo sapiens
[19] = target: T2, Dual specificity mitogen-activated protein kinase kinase 6 (Homo sapiens, UniProt P52564); assay: Inhibition of human MKK6 by ELISA
T2 sequence (P52564 whole entry): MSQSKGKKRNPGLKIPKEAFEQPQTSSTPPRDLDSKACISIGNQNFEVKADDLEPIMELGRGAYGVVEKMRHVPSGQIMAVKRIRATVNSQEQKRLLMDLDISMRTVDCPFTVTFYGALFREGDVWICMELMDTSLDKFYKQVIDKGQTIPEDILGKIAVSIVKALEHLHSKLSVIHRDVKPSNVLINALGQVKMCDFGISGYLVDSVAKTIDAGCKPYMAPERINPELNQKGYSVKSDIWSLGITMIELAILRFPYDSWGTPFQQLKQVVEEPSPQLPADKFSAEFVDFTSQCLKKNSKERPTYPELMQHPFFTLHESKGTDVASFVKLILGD

[20] = target: T1, MAP kinase-activated protein kinase 2; assay: Inhibition of LPS-induced MK2 phosphorylation in primary human monocytes upto 5 uM by immunoblot analysis; format: cell-based
Target sequence in this assay (P49137 whole entry, looked up): as the sequence (P49137 whole entry) above

HeLa [21] = assay: Inhibition of human MEK phosphorylation in Tpl2 transfected HeLa cells; format: cell-based
Monocyte [22] = assay: as §3; format: functional
[23] = Inhibition of IL-1-beta-induced ERK phosphorylation in primary human monocytes by immunoblot analysis; format: cell-based
[24] = Inhibition of human CaMK2 by ELISA
HeLa [25] = assay: Inhibition of TNF-alpha-induced ERK phosphorylation in human HeLa cells by immunoblot analysis; format: functional, cell-based
HEK293 [26] = assay: Inhibition of IL-1-beta-induced NF-kappaB activation in HEK293 cells upto 10 uM by luciferase assay; format: cell-based; details: Homo sapiens
Blood [27] = assay: Inhibition of IL-1-beta-induced TNFalpha production in human blood; format: functional, tissue-based
HeLa [28] = assay: Inhibition of human ERK phosphorylation in Tpl2 transfected HeLa cells; format: cell-based
[29] = Inhibition of human PKA by scintiplate assay
[30] = Inhibition of IL-1-beta-stimulated IL6 production in human RA-FLS cells by immunoblot analysis; format: functional, cell-based
[31] = Inhibition of human S6K by scintiplate assay
[32] = Cytotoxicity against primary human monocytes at 5 uM; format: cell-based; details: monocyte
[33] = Inhibition of IL-1-beta-stimulated IL8 production in human RA-FLS cells by immunoblot analysis; format: functional, cell-based
[34] = Inhibition of IL-1-beta-stimulated PGE2 production in human RA-FLS cells by immunoblot analysis; format: functional, cell-based
Monocyte [35] = assay: (§4) Inhibition of LPS-induced IL12p40 production in primary human monocytes; format: functional
[36] = target: Protein kinase C alpha type (Homo sapiens, UniProt P17252); assay: Inhibition of human PKCalpha by scintiplate assay
Stromelysin-1 = Stromelysin-1 (Homo sapiens, UniProt P08254); assay: Inhibition of IL-1-beta-stimulated MMP3 in human RA-FLS cells by immunoblot analysis; format: cell-based
[37] = target: T3, Inhibitor of nuclear factor kappa-B kinase subunit beta (Homo sapiens, UniProt O14920); assay: Inhibition of human IKK-beta by ELISA
T3 sequence (O14920 whole entry): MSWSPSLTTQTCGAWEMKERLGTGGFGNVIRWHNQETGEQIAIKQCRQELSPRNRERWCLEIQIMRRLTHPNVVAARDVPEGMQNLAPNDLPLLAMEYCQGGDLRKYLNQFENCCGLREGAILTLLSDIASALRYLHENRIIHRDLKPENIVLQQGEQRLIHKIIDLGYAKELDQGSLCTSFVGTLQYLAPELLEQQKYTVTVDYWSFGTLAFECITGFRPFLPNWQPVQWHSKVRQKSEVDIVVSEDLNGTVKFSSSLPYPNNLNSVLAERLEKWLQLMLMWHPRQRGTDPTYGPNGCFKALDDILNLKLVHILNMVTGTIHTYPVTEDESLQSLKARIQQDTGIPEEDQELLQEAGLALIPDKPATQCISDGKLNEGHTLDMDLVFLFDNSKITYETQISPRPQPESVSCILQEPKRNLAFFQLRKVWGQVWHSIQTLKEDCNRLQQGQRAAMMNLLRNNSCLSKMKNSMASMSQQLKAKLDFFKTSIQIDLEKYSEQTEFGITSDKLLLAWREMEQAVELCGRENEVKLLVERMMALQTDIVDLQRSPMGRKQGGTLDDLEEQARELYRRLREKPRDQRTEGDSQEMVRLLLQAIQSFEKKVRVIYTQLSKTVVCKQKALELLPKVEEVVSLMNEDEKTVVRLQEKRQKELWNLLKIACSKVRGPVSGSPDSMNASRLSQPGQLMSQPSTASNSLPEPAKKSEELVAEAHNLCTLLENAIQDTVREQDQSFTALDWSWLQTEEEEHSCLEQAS

Blood [38] = assay: Inhibition of LPS-induced TNFalpha production in human blood; format: functional, tissue-based
Monocyte [39] = assay: Inhibition of IL-1-beta-induced TNFalpha production in primary human monocytes; format: functional, cell-based
Homo sapiens [40] = species on record: Homo sapiens; assay: Effect on ERK activation in LPS-induced tpl2-/- mouse peritoneal macrophages
Monocyte [41] = assay: as §4; format: functional, cell-based
HeLa [42] = assay: Inhibition of TNF-alpha-induced IL8 production in human HeLa cells after 4 hrs; format: functional, cell-based
[43] = target: T4, NF-kappa-B inhibitor alpha (Homo sapiens) (UniProt P25963); assay: Inhibition of LPS-induced IkappaBalpha phosphorylation in primary human monocytes upto 5 uM by immunoblot analysis; format: cell-based
T4 sequence (whole entry): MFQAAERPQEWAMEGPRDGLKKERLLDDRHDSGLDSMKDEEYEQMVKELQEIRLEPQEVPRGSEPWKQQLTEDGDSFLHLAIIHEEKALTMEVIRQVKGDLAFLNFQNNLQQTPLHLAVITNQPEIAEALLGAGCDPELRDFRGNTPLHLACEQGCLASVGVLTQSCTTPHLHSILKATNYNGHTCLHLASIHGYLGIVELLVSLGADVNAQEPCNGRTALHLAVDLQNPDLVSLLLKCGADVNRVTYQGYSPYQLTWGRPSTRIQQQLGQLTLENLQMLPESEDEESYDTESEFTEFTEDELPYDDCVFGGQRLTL

[44] = target: MAP kinase p38 (Homo sapiens) (UniProt O15264+Q15759+Q16539+P53778); assay: Inhibition of LPS-induced p38 phosphorylation in primary human monocytes upto 5 uM by immunoblot analysis; format: cell-based
Homo sapiens [45] = species on record: Homo sapiens; assay: Inhibition of LPS-induced c-Jun phosphorylation in primary human monocytes upto 5 uM by immunoblot analysis; format: cell-based
RA-FLS [46] = assay: Inhibition of IL-1-beta-stimulated COX2 expression in human RA-FLS cells after 4 hrs by immunoblot analysis; format: functional, cell-based
Homo sapiens [47] = species on record: Homo sapiens; assay: Inhibition of PMA-induced ERK phosphorylation in primary human monocytes by immunoblot analysis; format: cell-based
[48] = Inhibition of TNF-alpha-stimulated PGE2 production in human RA-FLS cells by immunoblot analysis; format: functional, cell-based
Monocyte [49] = assay: Inhibition of LPS-induced TNFalpha production in primary human monocytes; format: functional, cell-based
Mus musculus = species on record: Mus musculus; assay: Effect on IL-1-beta-induced ERK phosphorylation in 129S5 mouse thioglycollate elicited peritoneal macrophages
[50] = Inhibition of human JNK1alpha by scintiplate assay
Homo sapiens [51] = species on record: Homo sapiens; assay: as §1; format: cell-based
Homo sapiens [52] = species on record: Homo sapiens; assay: as §2; format: cell-based

Sequence of Mitogen-activated protein kinase kinase kinase 8 (P41279 whole entry): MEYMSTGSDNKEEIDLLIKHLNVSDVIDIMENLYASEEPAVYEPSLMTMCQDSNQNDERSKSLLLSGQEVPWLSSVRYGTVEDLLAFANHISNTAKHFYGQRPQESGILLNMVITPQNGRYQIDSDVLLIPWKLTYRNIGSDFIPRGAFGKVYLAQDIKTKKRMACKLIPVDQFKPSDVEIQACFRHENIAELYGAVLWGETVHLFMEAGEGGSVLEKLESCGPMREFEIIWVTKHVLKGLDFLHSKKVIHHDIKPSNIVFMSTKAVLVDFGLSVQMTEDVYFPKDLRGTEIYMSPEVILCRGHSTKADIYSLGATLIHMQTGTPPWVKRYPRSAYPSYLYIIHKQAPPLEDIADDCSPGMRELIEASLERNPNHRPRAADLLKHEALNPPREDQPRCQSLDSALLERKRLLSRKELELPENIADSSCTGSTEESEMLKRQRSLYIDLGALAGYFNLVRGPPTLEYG
Sequence of RAF proto-oncogene serine/threonine-protein kinase (P04049 whole entry): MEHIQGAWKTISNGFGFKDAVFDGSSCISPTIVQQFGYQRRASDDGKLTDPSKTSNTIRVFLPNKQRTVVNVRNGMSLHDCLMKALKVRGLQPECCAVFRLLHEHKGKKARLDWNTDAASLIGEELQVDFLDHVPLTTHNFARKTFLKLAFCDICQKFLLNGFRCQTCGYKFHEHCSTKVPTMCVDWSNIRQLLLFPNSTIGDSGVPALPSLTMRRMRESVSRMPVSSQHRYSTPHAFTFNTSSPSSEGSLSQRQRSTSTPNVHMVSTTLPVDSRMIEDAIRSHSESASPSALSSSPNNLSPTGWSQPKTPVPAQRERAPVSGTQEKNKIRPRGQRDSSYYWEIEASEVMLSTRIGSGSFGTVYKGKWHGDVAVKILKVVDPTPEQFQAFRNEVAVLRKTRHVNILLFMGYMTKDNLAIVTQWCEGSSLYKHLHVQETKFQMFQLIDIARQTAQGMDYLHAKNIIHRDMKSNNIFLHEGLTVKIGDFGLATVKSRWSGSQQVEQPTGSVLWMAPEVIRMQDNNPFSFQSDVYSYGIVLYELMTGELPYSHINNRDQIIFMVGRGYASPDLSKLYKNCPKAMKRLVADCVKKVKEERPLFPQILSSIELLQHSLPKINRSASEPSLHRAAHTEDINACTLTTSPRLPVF
Sequence of Mitogen-activated protein kinase 14 (Q16539 whole entry): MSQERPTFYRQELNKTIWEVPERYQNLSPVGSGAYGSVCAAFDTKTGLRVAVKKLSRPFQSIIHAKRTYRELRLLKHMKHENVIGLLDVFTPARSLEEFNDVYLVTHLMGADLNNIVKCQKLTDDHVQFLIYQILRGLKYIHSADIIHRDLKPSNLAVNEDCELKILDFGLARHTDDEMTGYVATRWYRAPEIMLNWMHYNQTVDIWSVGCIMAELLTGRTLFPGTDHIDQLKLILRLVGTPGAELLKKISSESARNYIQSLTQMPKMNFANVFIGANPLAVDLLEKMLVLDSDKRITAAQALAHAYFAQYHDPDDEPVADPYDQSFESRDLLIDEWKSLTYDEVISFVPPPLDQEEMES
Sequence of Dual specificity mitogen-activated protein kinase kinase 1 (P29678 whole entry): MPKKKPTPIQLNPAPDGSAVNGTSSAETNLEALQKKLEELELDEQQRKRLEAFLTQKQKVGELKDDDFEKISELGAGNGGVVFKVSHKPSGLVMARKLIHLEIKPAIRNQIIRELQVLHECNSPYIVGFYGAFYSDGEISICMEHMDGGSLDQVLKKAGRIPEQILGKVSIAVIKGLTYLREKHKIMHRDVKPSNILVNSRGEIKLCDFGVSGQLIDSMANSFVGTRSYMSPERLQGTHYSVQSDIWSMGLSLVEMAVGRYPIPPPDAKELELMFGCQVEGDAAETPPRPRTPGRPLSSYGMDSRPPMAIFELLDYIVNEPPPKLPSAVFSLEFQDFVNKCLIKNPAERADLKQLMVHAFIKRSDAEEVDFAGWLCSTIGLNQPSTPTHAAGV
Sequence of Stromelysin-1 (P08254 whole entry): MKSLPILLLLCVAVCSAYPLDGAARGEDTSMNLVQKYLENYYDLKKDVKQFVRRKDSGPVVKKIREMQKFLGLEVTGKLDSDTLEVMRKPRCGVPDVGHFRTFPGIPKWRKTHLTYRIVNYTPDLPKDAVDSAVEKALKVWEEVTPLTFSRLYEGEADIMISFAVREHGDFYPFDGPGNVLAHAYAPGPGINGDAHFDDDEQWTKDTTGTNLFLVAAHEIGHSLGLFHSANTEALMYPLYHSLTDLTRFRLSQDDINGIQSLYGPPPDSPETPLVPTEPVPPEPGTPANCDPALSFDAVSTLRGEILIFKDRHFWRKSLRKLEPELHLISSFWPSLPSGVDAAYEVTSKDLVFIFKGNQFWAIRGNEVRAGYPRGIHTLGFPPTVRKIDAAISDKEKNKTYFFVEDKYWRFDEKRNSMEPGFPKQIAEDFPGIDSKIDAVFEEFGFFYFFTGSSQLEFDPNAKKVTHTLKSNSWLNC
Sequence of Proto-oncogene tyrosine-protein kinase Src (P12931 2-536 limits assumed): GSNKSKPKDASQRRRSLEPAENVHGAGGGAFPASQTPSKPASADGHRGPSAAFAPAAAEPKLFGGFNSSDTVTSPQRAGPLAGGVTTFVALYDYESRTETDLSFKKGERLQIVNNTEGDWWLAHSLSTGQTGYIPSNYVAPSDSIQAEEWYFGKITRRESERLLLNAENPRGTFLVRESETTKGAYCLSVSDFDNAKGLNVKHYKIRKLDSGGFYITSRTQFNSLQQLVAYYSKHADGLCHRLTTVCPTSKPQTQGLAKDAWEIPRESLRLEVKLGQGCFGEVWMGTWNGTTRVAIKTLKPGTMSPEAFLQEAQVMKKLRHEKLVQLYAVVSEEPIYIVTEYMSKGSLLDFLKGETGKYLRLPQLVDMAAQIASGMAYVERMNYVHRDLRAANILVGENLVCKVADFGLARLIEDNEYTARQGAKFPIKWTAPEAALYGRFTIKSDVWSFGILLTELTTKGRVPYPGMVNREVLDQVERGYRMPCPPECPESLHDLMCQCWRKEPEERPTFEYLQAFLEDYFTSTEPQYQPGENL

IC50 [1]: 0.016 µM
IC50 [2]: ≤ 1 µM
IC50 [3]: ≤ 1 µM
SMILES: C[C@@H](Nc1cc2c(Nc3ccc(F)c(Cl)c3)c(C#N)cnc2cn1)c1ccccc1

IC50 [6]: 0.3 µM
IC50 [7]: 0.5 µM
IC50 [8]: > 100 µM
IC50 [9]: > 100 µM
IC50 (HeLa [11]): 1 µM
IC50 (Monocyte [12]): > 5 µM
IC50 [13]: 48 µM
IC50 [1]: 0.012 µM
IC50 [14]: > 100 µM
IC50 [16]: 4 µM
IC50 [17]: > 40 µM
IC50 [19]: > 100 µM
Activity [20]: inactive
IC50 [23]: 0.3 µM
IC50 [24]: 23 µM
IC50 [2]: 0.5 µM
IC50 (HeLa [25]): 2.5 µM
IC50 (Blood [27]): 7.2 µM
IC50 [29]: > 100 µM
IC50 [30]: 6.9 µM
IC50 [31]: > 100 µM
IC50 [33]: 7.9 µM
IC50 [34]: 0.4 µM
IC50 [36]: > 100 µM
IC50 (Stromelysin-1): 2.3 µM
IC50 [37]: 73 µM
IC50 (Blood [38]): 5.4 µM
IC50 (Monocyte [39]): 0.7 µM
Activity (Homo sapiens [40]): inactive
IC50 (Monocyte [41]): > 5 µM
IC50 (HeLa [42]): 0.2 µM
Activity [43]: inactive
Activity [44]: inactive
IC50 [48]: 0.7 µM
IC50 [3]: 0.1 µM
IC50 (Monocyte [49]): 0.6 µM
Activity (Mus musculus): Dose-dependent effect
IC50 [50]: 65 µM
SMILES: N#Cc1cnc2c(Cl)cc(NCc3cnc[nH]3)cc2c1Nc1ccc(F)c(Cl)c1
Activity (Homo sapiens [4]): inactive
Activity (RA-FLS [5]): Active
Activity (HeLa [10]): inactive
Activity [15]: Non-toxic
Activity (HEK293 [18]): inactive
Activity (HeLa [21]): Active
inhibition at 5 µM (Monocyte [22]): 30%
Activity (HEK293 [26]): inactive
Activity (HeLa [28]): Active
Activity [32]: Non-toxic
inhibition (INH) (Monocyte [35]): 39%
Activity (Homo sapiens [45]): inactive
Activity (RA-FLS [46]): Active
Activity (Homo sapiens [47]): inactive

SMILES: C[C@H](Nc1cc2c(Nc3ccc(F)c(Cl)c3)c(C#N)cnc2cn1)c1ccccc1
Activity (Homo sapiens [51]): inactive
Activity (Homo sapiens [52]): inactive

— ChEMBL document CHEMBL1156513, “Pharmacologic inhibition of tpl2 blocks inflammatory responses in primary human monocytes, synoviocytes, and blood” (J Biol Chem, 2007)
